Results on four compounds are retold here after the NIST ThermoML archive (doi:10.1016/j.jct.2005.10.018).

Broadly, the mass density is the mass of a sample divided by its volume.

For this data set the following is noted: 298.15 K; 101.33 kPa; Liquid; Vibrating tube method.

Numbers after ± are expanded uncertainties.

Take `C=C1CC[C@H]2C[C@@H]1C2(C)C` [(1S,5S)-6,6-dimethyl-2-methylenebicyclo[3.1.1]heptane]: the mass density is reported as 866.84 ± 0.3 kg/m3.
Consider `C=C(C)[C@H]1CC=C(C)CC1` [(R)-1-methyl-4-(1-methylethenyl)cyclohexene], for which the mass density worked out at 837.31 ± 0.85 kg/m3.
With `CC1=CC[C@H]2C[C@@H]1C2(C)C` [(S)-2-pinene], the mass density is reported as 853.88 ± 0.3 kg/m3.
Turning to `CCO` [ethanol], the mass density turned out to be 785.24 ± 0.16 kg/m3.
